Experimental data taken from patent US20180084779A1, “PLANT DISEASE CONTROL AGENT AND USE THEREOF” (NIHON NOHYAKU CO., LTD., priority 2015, published 2018).

Tests used:
[1] = system: Septoria tritici, KUK-1-21 Strain; assay: Test for wheat leaf blotch, fluoroimide and/or DMI agent sprayed on wheat pots, lesion area index 17 days after inoculation; type: in vivo; conditions: for Controlling effect Combination with fluoroimide / Controlling effect DMI alone: 17 days; for Controlling effect DMI alone: fluoroimide 0 ppm
Procedure: (§1) Test for Wheat Leaf Blotch (Septoria tritici, KUK-1-21 Strain):
(§2) Agrochemical liquids containing a predetermined concentration of fluoroimide and/or a predetermined concentration of each DMI agent were applied to wheat in a predetermined amount with a spray gun. After air drying, a suspension of fungus spore of Septoria tritici adjusted to 1.0×10^7 spores/ml was inoculated by spraying. After that, the wheat pots were kept in a growth chamber under a light condition of at 15° C. 100% RH to encourage the development of the disease. Seventeen days after the inoculation, the lesion area index (0-10) was determined for the evaluation of the control effect.
(§3) Control effect (%)=[(Disease index of no treatment area−Disease index of treatment area)/Disease index of no treatment area]×100 [Formula 1]
(§4) The expected effect (expected value E) by using an active ingredient in combination with each of other active ingredients in the above tests was determined by the following Colby formula (see COLBY, S. R., Weeds 15: 20-22 (1967)).
(§5) E(Expected effect)=(X+Y)−(X×Y/100) [Formula 2]
X=controlling effect of fungicide A alone
Y=controlling effect of fungicide B alone

[2] = system: Septoria tritici, KUK-1-21 Strain; assay: Test for wheat leaf blotch, fluoroimide and/or SDHI agent sprayed on wheat pots, lesion area index 21 days after inoculation; type: in vivo; conditions: for Control effect Combination with fluoroimide / Control effect SDHI alone: 21 days; for Control effect SDHI alone: fluoroimide 0 ppm
Procedure: as §3, §4, §5, §1
as §2, with “SDHI” for “DMI”, “Twenty-one” for “Seventeen”, “set and” for “determined for”, “controlling effects and expected values are examined in” for “evaluation of”, “same manner as Example 1.” for “control effect.”

[3] = DMI agent 1 ppm + fluoroimide 50 ppm
[4] = DMI agent 1 ppm + fluoroimide 100 ppm
[5] = DMI agent 3 ppm + fluoroimide 50 ppm
[6] = DMI agent 3 ppm + fluoroimide 100 ppm
[7] = DMI agent 10 ppm + fluoroimide 50 ppm
[8] = DMI agent 10 ppm + fluoroimide 100 ppm
[9] = SDHI agent 1 ppm + fluoroimide 50 ppm
[10] = SDHI agent 1 ppm + fluoroimide 100 ppm
[11] = SDHI agent 3 ppm + fluoroimide 50 ppm
[12] = SDHI agent 3 ppm + fluoroimide 100 ppm
[13] = SDHI agent 10 ppm + fluoroimide 50 ppm
[14] = SDHI agent 10 ppm + fluoroimide 100 ppm

| SMILES | Controlling effect Expected value (Colby) [1, 3] [%] | Controlling effect Combination with fluoroimide [1, 3] [%] | Controlling effect Expected value (Colby) [1, 4] [%] | Controlling effect Combination with fluoroimide [1, 4] [%] | Controlling effect DMI alone ([1]; DMI agent 1 ppm) [%] | Controlling effect Expected value (Colby) [1, 5] [%] | Controlling effect Combination with fluoroimide [1, 5] [%] | Controlling effect Expected value (Colby) [1, 6] [%] | Controlling effect Combination with fluoroimide [1, 6] [%] | Controlling effect DMI alone ([1]; DMI agent 3 ppm) [%] | Controlling effect Expected value (Colby) [1, 7] [%] | Controlling effect Combination with fluoroimide [1, 7] [%] | Controlling effect Expected value (Colby) [1, 8] [%] | Controlling effect Combination with fluoroimide [1, 8] [%] | Controlling effect DMI alone ([1]; DMI agent 10 ppm) [%] | also measured |
| --- | --- | --- | --- | --- | --- | --- | --- | --- | --- | --- | --- | --- | --- | --- | --- | --- |
| Fc1ccc([C@]2(Cn3cncn3)O[C@H]2c2ccccc2Cl)cc1 (racemic) [epoxiconazole] | 25 | 19 | 50 | 72 | 0 | 63 | 62 | 75 | 83 | 50 | 71 | 84 | 81 | 83 | 61 | – |
| CCCC1COC(Cn2cncn2)(c2ccc(Cl)cc2Cl)O1 (stereo not drawn) [propiconazole] | 25 | 62 | 50 | 72 | 0 | 46 | 89 | 64 | 94 | 28 | 33 | 89 | 56 | 100 | 11 | – |
| Cn1cc(C(=O)Nc2ccc(F)cc2-c2ccc(Cl)c(Cl)c2)c(C(F)F)n1 [bixafen] | – | – | – | – | – | – | – | – | – | – | – | – | – | – | – | Control effect Expected value (Colby) [2, 9]: 76%; Control effect Combination with fluoroimide [2, 9]: 95%; Control effect Expected value (Colby) [2, 10]: 81%; Control effect Combination with fluoroimide [2, 10]: 85%; Control effect SDHI alone ([2]; SDHI agent 1 ppm): 75%; Control effect Expected value (Colby) [2, 11]: 86%; Control effect Combination with fluoroimide [2, 11]: 100%; Control effect Expected value (Colby) [2, 12]: 89%; Control effect Combination with fluoroimide [2, 12]: 90%; Control effect SDHI alone ([2]; SDHI agent 3 ppm): 85%; Control effect Expected value (Colby) [2, 13]: 100%; Control effect Combination with fluoroimide [2, 13]: 100%; Control effect Expected value (Colby) [2, 14]: 100%; Control effect Combination with fluoroimide [2, 14]: 100%; Control effect SDHI alone ([2]; SDHI agent 10 ppm): 100% |
| CC1(C)CCC(Cc2ccc(Cl)cc2)C1(O)Cn1cncn1 (stereo not drawn) [metconazole] | 30 | 68 | 53 | 78 | 6 | 46 | 84 | 64 | 89 | 28 | 92 | 95 | 95 | 89 | 89 | – |
| CC1COC(Cn2cncn2)(c2ccc(Oc3ccc(Cl)cc3)cc2Cl)O1 (stereo not drawn) [difenoconazole] | 25 | 52 | 50 | 94 | 0 | 71 | 89 | 81 | 89 | 61 | 71 | 89 | 81 | 100 | 61 | – |
| CCCN(CCOc1c(Cl)cc(Cl)cc1Cl)C(=O)n1ccnc1 [prochloraz] | 25 | 57 | 50 | 72 | 0 | 33 | 41 | 56 | 72 | 11 | 30 | 62 | 53 | 67 | 6 | – |
| CC(C)(C)C(O)(CCc1ccc(Cl)cc1)Cn1cncn1 (stereo not drawn) [tebuconazole] | 30 | 62 | 53 | 67 | 6 | 58 | 68 | 72 | 94 | 44 | 71 | 89 | 81 | 94 | 61 | – |
| OC(Cc1ccccc1Cl)(Cn1nc[nH]c1=S)C1(Cl)CC1 (stereo not drawn) [prothioconazole] | 25 | 3 | 50 | 61 | 0 | 25 | 30 | 50 | 72 | 0 | 25 | 73 | 50 | 67 | 0 | – |
